± gives the standard deviation of the averaged measurements.
Key:
Test in all cases: level (log10 ratio to DMSO vehicle control); higher = higher biomarker level / cell amount than vehicle control
Details in all cases: in DMSO
Methotrexate = compound: CN(Cc1cnc2nc(N)nc(N)c2n1)c1ccc(C(=O)N[C@@H](CCC(=O)O)C(=O)O)cc1 [Methotrexate]
Description: (§1)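 BioMAP Diversity Plus panel of 12 human primary cell co-culture systems (3C, 4H, LPS, SAg, BT, BF4T, BE3C, CASM3C, HDF3CGF, KF3CT, MyoF, Mphg). Compounds were added 1 h before stimulation and left for 24 h (MyoF 48 h; BT 72 h for soluble read-outs or 6 d for IgG). Biomarkers were read by ELISA, cytotoxicity by SRB, PBMC viability and proliferation by Alamar Blue. Each well value was divided by the mean of 8 DMSO control wells on the same plate and log10 transformed; duplicate blinded samples were tested at 4 concentrations.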

[1] = compound: Cc1ccc(S(=O)(=O)OCC(F)(F)C(F)(F)C(F)(F)C(F)(F)C(F)(F)C(F)F)cc1 [1H,1H,7H-Perfluoroheptyl 4-methylbenzenesulfonate]
Description: as §1

[2] = compound: FC(F)(F)COC(OCC(F)(F)F)OCC(F)(F)F [tris(Trifluoroethoxy)methane]
Description: as §1

Tetrafluorosuccinic acid = compound: O=C(O)C(F)(F)C(F)(F)C(=O)O [Tetrafluorosuccinic acid]
Description: as §1

Perfluorooctanoic acid = compound: O=C(O)C(F)(F)C(F)(F)C(F)(F)C(F)(F)C(F)(F)C(F)(F)C(F)(F)F [Perfluorooctanoic acid]
Description: as §1

Perfluoropinacol = compound: OC(C(F)(F)F)(C(F)(F)F)C(O)(C(F)(F)F)C(F)(F)F [Perfluoropinacol]
Description: as §1

| Test System | level (log10) (Methotrexate; 1500 nM) | level (log10) (Methotrexate; 4400 nM) | level (log10) (Methotrexate; 13000 nM) | level (log10) (Methotrexate; 40000 nM) | level (log10) ([1]; 6700 nM) | level (log10) ([1]; 20000 nM) | level (log10) ([1]; 60000 nM) | level (log10) ([2]; 6700 nM) | level (log10) ([2]; 20000 nM) | level (log10) ([2]; 60000 nM) | level (log10) (Tetrafluorosuccinic acid; 6700 nM) | level (log10) (Tetrafluorosuccinic acid; 20000 nM) | level (log10) (Tetrafluorosuccinic acid; 60000 nM) | level (log10) (Perfluorooctanoic acid; 6700 nM) | level (log10) (Perfluorooctanoic acid; 20000 nM) | level (log10) (Perfluorooctanoic acid; 60000 nM) | level (log10) (Perfluoropinacol; 6700 nM) | level (log10) (Perfluoropinacol; 20000 nM) |
| --- | --- | --- | --- | --- | --- | --- | --- | --- | --- | --- | --- | --- | --- | --- | --- | --- | --- | --- |
| HDF3CGF:MMP-1 | -0.0085 ± 0.005 | -0.0135 ± 0.0021 | 0.0005 ± 0.0021 | 0.0065 ± 0.028 | 0.024 ± 0.0014 | 0.0535 ± 0.016 | 0.066 ± 0.0014 | -0.005 ± 0.0099 | -0.005 ± 0.0014 | 0 ± 0.0085 | 0.0295 ± 0.015 | 0.0315 ± 0.021 | 0.0195 ± 0.022 | -0.0155 ± 0.0064 | -0.048 ± 0.0085 | -0.035 ± 0.023 | 0.024 ± 0.023 | 0.017 ± 0.014 |
| KF3CT:MMP-9 | 0.017 ± 0.013 | -0.001 ± 0.014 | -0.0045 ± 0.04 | 0.0075 ± 0.019 | -0.014 ± 0.031 | -0.073 ± 0.025 | -0.0915 ± 0.03 | -0.0015 ± 0.016 | -0.0105 ± 0.00071 | 0.004 ± 0.013 | -0.0305 ± 0.018 | -0.024 ± 0.031 | -0.0085 ± 0.035 | -0.0225 ± 0.026 | 0.003 ± 0.0099 | 0.028 ± 0.011 | 0.01 ± 0.018 | -0.0245 ± 0.029 |
| MyoF:PAI-I | -0.026 ± 0.072 | -0.011 ± 0.035 | 0.0015 ± 0.016 | -0.0185 ± 0.084 | -0.007 ± 0.0085 | -0.0085 ± 0.013 | -0.019 ± 0.013 | -0.0045 ± 0.018 | -0.0035 ± 0.00071 | 0.008 ± 0.0042 | 0.009 ± 0.0057 | 0.01 ± 0.017 | 0.004 ± 0.014 | -0.0225 ± 0.011 | -0.023 ± 0.024 | -0.0305 ± 0.029 | -0.0215 ± 0.012 | -0.0025 ± 0.00071 |
| KF3CT:SRB | 0.0105 ± 0.012 | -0.002 ± 0.0057 | 0.0025 ± 0.0035 | 0.009 ± 0.021 | -0.0215 ± 0.013 | -0.032 ± 0.011 | -0.0335 ± 0.0078 | -0.0125 ± 0.00071 | -0.0015 ± 0.0035 | -0.0035 ± 0.012 | -0.012 | -0.0005 ± 0.0078 | 0.001 ± 0.0042 | -0.005 ± 0.0014 | -0.003 ± 0.0014 | 0.007 ± 0.037 | -0.004 ± 0.0042 | -0.014 ± 0.02 |
| BE3C:SRB | -0.0035 ± 0.0064 | -0.009 ± 0.0014 | -0.0025 ± 0.00071 | 0.001 ± 0.014 | -0.006 ± 0.0028 | -0.008 ± 0.0042 | -0.0145 ± 0.0035 | -0.002 ± 0.0028 | 0.005 ± 0.0057 | -0.002 ± 0.0085 | -0.0045 ± 0.005 | -0.0045 ± 0.0064 | -0.001 ± 0.0028 | -0.0065 ± 0.00071 | -0.0025 ± 0.0021 | -0.014 ± 0.0099 | -0.0115 ± 0.0035 | -0.0285 ± 0.00071 |
| lMphg:M-CSF | -0.03 ± 0.034 | -0.013 ± 0.025 | -0.0295 ± 0.026 | -0.013 ± 0.085 | -0.0295 ± 0.005 | -0.0305 ± 0.0035 | -0.016 | -0.012 ± 0.0071 | -0.025 ± 0.035 | -0.0135 ± 0.029 | -0.005 ± 0.018 | -0.0105 ± 0.0092 | 0.019 ± 0.03 | -0.007 ± 0.0042 | 0.0105 ± 0.019 | 0.0185 ± 0.029 | -0.0155 ± 0.04 | -0.0825 ± 0.013 |
| HDF3CGF:CXCL10/IP-10 | 0.013 ± 0.0028 | 0.002 ± 0.0057 | 0.0035 ± 0.00071 | -0.001 ± 0.016 | -0.008 ± 0.025 | 0.0085 ± 0.013 | 0.006 ± 0.055 | 0.0005 ± 0.0092 | -0.002 ± 0.0071 | -0.015 ± 0.0057 | -0.0225 ± 0.0078 | -0.027 ± 0.04 | -0.0425 ± 0.064 | -0.0035 ± 0.011 | -0.017 ± 0.016 | -0.03 ± 0.034 | -0.0535 ± 0.023 | -0.215 ± 0.012 |
| lMphg:CD69 | -0.03 ± 0.021 | -0.0135 ± 0.036 | -0.0325 ± 0.057 | -0.034 ± 0.054 | -0.007 ± 0.016 | -0.048 ± 0.027 | -0.039 ± 0.062 | 0.0225 ± 0.05 | 0.005 ± 0.035 | 0.0095 ± 0.042 | -0.048 ± 0.021 | 0.0125 ± 0.047 | 0.059 ± 0.073 | -0.048 ± 0.028 | -0.0655 ± 0.05 | -0.033 ± 0.11 | -0.124 ± 0.026 | -0.256 ± 0.058 |
